Columns and labels:
human Factor XI mRNA [1] = assay: Dose-dependent inhibition in HepG2 cells, lipofectin (Example 4); assay type: cell-based; conditions: 16 hours
Procedure, shortened: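 HepG2 cells at 10,000 per well were lipofectin-transfected with 9.375, 18.75, 37.5 or 75 nM antisense oligonucleotide for about 16 h. Factor XI mRNA was quantified by real-time PCR (primer probe set RTS 2966) and normalised to RIBOGREEN total RNA. Values are percent inhibition versus untreated cells.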

human Factor XI mRNA [2] = assay: Dose-dependent inhibition in HepG2 cells, electroporation (Example 4); assay type: cell-based; conditions: 16 hours
Procedure, shortened: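 HepG2 cells electroporated with 0.7, 2.2, 6.7 or 20 μM antisense gapmer and harvested after ~16 h. Factor XI mRNA quantified by qRT-PCR (primer probe set RTS 2966), normalised to total RNA (RIBOGREEN). Reported as percent inhibition versus untreated control cells.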

human Factor XI mRNA [3] = assay: Dose-dependent inhibition in HepG2 cells, lipofectin (Example 5); assay type: cell-based; conditions: 16 hours
Experimental: (§1) Cells were plated at a density of 10,000 cells per well and transfected using lipofectin reagent with 2.34 nM, 4.69 nM, 9.375 nM, 18.75 nM, 37.5 nM, and 75 nM concentrations of antisense oligonucleotide, as specified in Table 11. After a treatment period of approximately 16 hours, RNA was isolated from the cells and human Factor XI mRNA levels were measured by quantitative real-time PCR. Human Factor XI primer probe set RTS 2966 was used to measure mRNA levels. Factor XI mRNA levels were adjusted according to total RNA content, as measured by RIBOGREEN®. Results are presented as percent inhibition of human Factor XI, relative to untreated control cells.

human Factor XI mRNA [4] = assay: Dose-dependent inhibition in HepG2 cells, electroporation (Example 5); assay type: cell-based; conditions: approx. 16 h, relative to untreated control cells
Experimental: The gapmers were also transfected via electroporation and their dose dependent inhibition of human Factor XI mRNA was measured. Cells were plated at a density of 20,000 cells per well and transfected via electroporation with 625 nM, 1250 nM, 2500 nM, 5,000 nM, 10,000 nM, and 20,000 nM concentrations of antisense oligonucleotide, as specified in Table 12. After a treatment period of approximately 16 hours, RNA was isolated from the cells and human Factor XI mRNA levels were measured by quantitative real-time PCR. Human Factor XI primer probe set RTS 2966 was used to measure mRNA levels. Factor XI mRNA levels were adjusted according to total RNA content, as measured by RIBOGREEN®. Results are presented as percent inhibition of human Factor XI, relative to untreated control cells.

human Factor XI mRNA [5] = assay: Dose-dependent inhibition in cyno primary hepatocytes, electroporation (Example 6); assay type: cell-based, cynomolgus monkey; conditions: approx. 16 h
Experimental: Cells were plated at a density of 35,000 cells per well and transfected via electroporation with 0.74 nM, 2.2 nM, 6.7 nM, 20 nM, 60 nM, and 180 nM concentrations of antisense oligonucleotide, as specified in Table 13. After a treatment period of approximately 16 hours, RNA was isolated from the cells and human Factor XI mRNA levels were measured by quantitative real-time PCR. Human Factor XI primer probe set RTS 2966 was used to measure mRNA levels. Factor XI mRNA levels were adjusted according to total RNA content, as measured by RIBOGREEN®. Results are presented as percent inhibition of human Factor XI, relative to untreated control cells.

human Factor XI mRNA [6] = assay: Dose-dependent inhibition in HepB3 cells, lipofectin (Example 7); assay type: cell-based; conditions: approx. 16 h
Experimental: as §1, with “4,000” for “10,000”, “2.3” for “2.34”, “4.7” for “4.69”, “9.4” for “9.375”, “14.” for “11.”, “of” for “of human”

human Factor XI mRNA [7] = assay: Dose-dependent inhibition in HepB3 cells, electroporation (Example 7); assay type: cell-based; conditions: approx. 16 h
Experimental: The gapmers were also transfected via electroporation and their dose dependent inhibition of human Factor XI mRNA was measured. Cells were plated at a density of 20,000 cells per well and transfected via electroporation with 41.15 nM, 123.457 nM, 370.37 nM, 1111.11 nM, 3333.33 nM, and 10,000 nM concentrations of antisense oligonucleotide, as specified in Table 15. After a treatment period of approximately 16 hours, RNA was isolated from the cells and human Factor XI mRNA levels were measured by quantitative real-time PCR. Human Factor XI primer probe set RTS 2966 was used to measure mRNA levels. Factor XI mRNA levels were adjusted according to total RNA content, as measured by RIBOGREEN®. Results are presented as percent inhibition of human Factor XI, relative to untreated control cells.

[8] = Tolerability in Sprague-Dawley rats: body and organ weight (Example 19); assay type: in vivo; conditions: 50 mg/kg s.c. twice per week for 6 weeks, change over weight at start of study
Text: (§2) Urine samples were taken before the start of treatment.
The body weights are presented in Table 78 and are expressed as a percent change over the weights taken at the start of the study.

[9] = Tolerability in Sprague-Dawley rats: kidney function (Example 19); assay type: in vivo; conditions: Sprague Dawley rats; for urine protein/creatinine ratio, After: after 50 mg/kg s.c. twice per week for 6 weeks; for urine protein/creatinine ratio, Before: before antisense oligonucleotide treatment
Text: as §2

## 416826 (antisense ATGCCCTTCATGTCTAGGTC; 5-10-5 gapmer, wing sugar chemistry not given here, further chemistry not given here) [compound 416826]
Human Factor XI mRNA [1]; 9.375 nM
  percent inhibition of Factor XI mRNA, relative to untreated control cells: 8%
Human Factor XI mRNA [1]; 18.75 nM
  percent inhibition of Factor XI mRNA, relative to untreated control cells: 36%
Human Factor XI mRNA [1]; 37.5 nM
  percent inhibition of Factor XI mRNA, relative to untreated control cells: 58%
Human Factor XI mRNA [1]; 75 nM
  percent inhibition of Factor XI mRNA, relative to untreated control cells: 84%
Human Factor XI mRNA [2]; 0.7 μM
  percent inhibition of Factor XI mRNA, relative to untreated control cells: 2%
Human Factor XI mRNA [2]; 2.2 μM
  percent inhibition of Factor XI mRNA, relative to untreated control cells: 47%
Human Factor XI mRNA [2]; 6.7 μM
  percent inhibition of Factor XI mRNA, relative to untreated control cells: 86%
Human Factor XI mRNA [2]; 20 μM
  percent inhibition of Factor XI mRNA, relative to untreated control cells: 82%
Human Factor XI mRNA [3]; 2.34 nM
  percent inhibition of human Factor XI mRNA, relative to untreated control cells: 15%
Human Factor XI mRNA [3]; 4.69 nM
  percent inhibition of human Factor XI mRNA, relative to untreated control cells: 22%
Human Factor XI mRNA [3]; 9.375 nM
  percent inhibition of human Factor XI mRNA, relative to untreated control cells: 32%
Human Factor XI mRNA [3]; 18.75 nM
  percent inhibition of human Factor XI mRNA, relative to untreated control cells: 54%
Human Factor XI mRNA [3]; 37.5 nM
  percent inhibition of human Factor XI mRNA, relative to untreated control cells: 76%
Human Factor XI mRNA [3]; 75 nM
  percent inhibition of human Factor XI mRNA, relative to untreated control cells: 90%
Human Factor XI mRNA [4]; 625 nM
  percent inhibition of human Factor XI mRNA: 67%
Human Factor XI mRNA [4]; 1250 nM
  percent inhibition of human Factor XI mRNA: 82%
Human Factor XI mRNA [4]; 2500 nM
  percent inhibition of human Factor XI mRNA: 89%
Human Factor XI mRNA [4]; 5000 nM
  percent inhibition of human Factor XI mRNA: 92%
Human Factor XI mRNA [4]; 10000 nM
  percent inhibition of human Factor XI mRNA: 95%
Human Factor XI mRNA [4]; 20000 nM
  percent inhibition of human Factor XI mRNA: 97%
Human Factor XI mRNA [5]; 0.74 nM
  percent inhibition of human Factor XI mRNA: 13%
Human Factor XI mRNA [5]; 2.2 nM
  percent inhibition of human Factor XI mRNA: 24%
Human Factor XI mRNA [5]; 6.7 nM
  percent inhibition of human Factor XI mRNA: 34%
Human Factor XI mRNA [5]; 20 nM
  percent inhibition of human Factor XI mRNA: 67%
Human Factor XI mRNA [5]; 60 nM
  percent inhibition of human Factor XI mRNA: 69%
Human Factor XI mRNA [5]; 180 nM
  percent inhibition of human Factor XI mRNA: 71%
Human Factor XI mRNA [6]; 2.3 nM
  percent inhibition of human Factor XI mRNA: 16%
Human Factor XI mRNA [6]; 4.7 nM
  percent inhibition of human Factor XI mRNA: 28%
Human Factor XI mRNA [6]; 9.4 nM
  percent inhibition of human Factor XI mRNA: 38%
Human Factor XI mRNA [6]; 18.75 nM
  percent inhibition of human Factor XI mRNA: 55%
Human Factor XI mRNA [6]; 37.5 nM
  percent inhibition of human Factor XI mRNA: 64%
Human Factor XI mRNA [6]; 75 nM
  percent inhibition of human Factor XI mRNA: 66%
Human Factor XI mRNA [7]; 41.15 nM
  percent inhibition of human Factor XI mRNA: 0%
Human Factor XI mRNA [7]; 123.457 nM
  percent inhibition of human Factor XI mRNA: 0%
Human Factor XI mRNA [7]; 370.37 nM
  percent inhibition of human Factor XI mRNA: 34%
Human Factor XI mRNA [7]; 1111.11 nM
  percent inhibition of human Factor XI mRNA: 61%
Human Factor XI mRNA [7]; 3333.33 nM
  percent inhibition of human Factor XI mRNA: 87%
Human Factor XI mRNA [7]; 10000 nM
  percent inhibition of human Factor XI mRNA: 92%
[8]
  Percent change in Body weight: −40%
[9]
  urine protein/creatinine ratio, After: 11.4
  urine protein/creatinine ratio, Before: 1.0

## 416892 (antisense GCCCTTCATGTCTAGGTCCA; 3-14-3 chimeric gapmer, wing sugar chemistry not given here, further chemistry not given here) [compound 416892]
Human Factor XI mRNA [1]; 9.375 nM
  percent inhibition of Factor XI mRNA, relative to untreated control cells: 16%
Human Factor XI mRNA [1]; 18.75 nM
  percent inhibition of Factor XI mRNA, relative to untreated control cells: 50%
Human Factor XI mRNA [1]; 37.5 nM
  percent inhibition of Factor XI mRNA, relative to untreated control cells: 70%
Human Factor XI mRNA [1]; 75 nM
  percent inhibition of Factor XI mRNA, relative to untreated control cells: 85%
Human Factor XI mRNA [2]; 0.7 μM
  percent inhibition of Factor XI mRNA, relative to untreated control cells: 14%
Human Factor XI mRNA [2]; 2.2 μM
  percent inhibition of Factor XI mRNA, relative to untreated control cells: 52%
Human Factor XI mRNA [2]; 6.7 μM
  percent inhibition of Factor XI mRNA, relative to untreated control cells: 82%
Human Factor XI mRNA [2]; 20 μM
  percent inhibition of Factor XI mRNA, relative to untreated control cells: 92%
Human Factor XI mRNA [3]; 2.34 nM
  percent inhibition of human Factor XI mRNA, relative to untreated control cells: 14%
Human Factor XI mRNA [3]; 4.69 nM
  percent inhibition of human Factor XI mRNA, relative to untreated control cells: 34%
Human Factor XI mRNA [3]; 9.375 nM
  percent inhibition of human Factor XI mRNA, relative to untreated control cells: 49%
Human Factor XI mRNA [3]; 18.75 nM
  percent inhibition of human Factor XI mRNA, relative to untreated control cells: 70%
Human Factor XI mRNA [3]; 37.5 nM
  percent inhibition of human Factor XI mRNA, relative to untreated control cells: 84%
Human Factor XI mRNA [3]; 75 nM
  percent inhibition of human Factor XI mRNA, relative to untreated control cells: 93%
Human Factor XI mRNA [4]; 625 nM
  percent inhibition of human Factor XI mRNA: 66%
Human Factor XI mRNA [4]; 1250 nM
  percent inhibition of human Factor XI mRNA: 86%
Human Factor XI mRNA [4]; 2500 nM
  percent inhibition of human Factor XI mRNA: 96%
Human Factor XI mRNA [4]; 5000 nM
  percent inhibition of human Factor XI mRNA: 97%
Human Factor XI mRNA [4]; 10000 nM
  percent inhibition of human Factor XI mRNA: 100%
Human Factor XI mRNA [4]; 20000 nM
  percent inhibition of human Factor XI mRNA: 100%
Human Factor XI mRNA [5]; 0.74 nM
  percent inhibition of human Factor XI mRNA: 20%
Human Factor XI mRNA [5]; 2.2 nM
  percent inhibition of human Factor XI mRNA: 20%
Human Factor XI mRNA [5]; 6.7 nM
  percent inhibition of human Factor XI mRNA: 43%
Human Factor XI mRNA [5]; 20 nM
  percent inhibition of human Factor XI mRNA: 62%
Human Factor XI mRNA [5]; 60 nM
  percent inhibition of human Factor XI mRNA: 88%
Human Factor XI mRNA [5]; 180 nM
  percent inhibition of human Factor XI mRNA: 92%
Human Factor XI mRNA [6]; 2.3 nM
  percent inhibition of human Factor XI mRNA: 28%
Human Factor XI mRNA [6]; 4.7 nM
  percent inhibition of human Factor XI mRNA: 34%
Human Factor XI mRNA [6]; 9.4 nM
  percent inhibition of human Factor XI mRNA: 50%
Human Factor XI mRNA [6]; 18.75 nM
  percent inhibition of human Factor XI mRNA: 68%
Human Factor XI mRNA [6]; 37.5 nM
  percent inhibition of human Factor XI mRNA: 82%
Human Factor XI mRNA [6]; 75 nM
  percent inhibition of human Factor XI mRNA: 72%
Human Factor XI mRNA [7]; 41.15 nM
  percent inhibition of human Factor XI mRNA: 9%
Human Factor XI mRNA [7]; 123.457 nM
  percent inhibition of human Factor XI mRNA: 12%
Human Factor XI mRNA [7]; 370.37 nM
  percent inhibition of human Factor XI mRNA: 28%
Human Factor XI mRNA [7]; 1111.11 nM
  percent inhibition of human Factor XI mRNA: 65%
Human Factor XI mRNA [7]; 3333.33 nM
  percent inhibition of human Factor XI mRNA: 89%
Human Factor XI mRNA [7]; 10000 nM
  percent inhibition of human Factor XI mRNA: 98%
[8]
  Percent change in Body weight: −39%
[9]
  urine protein/creatinine ratio, After: 21.3
  urine protein/creatinine ratio, Before: 0.8

Source: patent publication US20120083522A1, “MODULATION OF INFLAMMATORY RESPONSES BY FACTOR XI” (Isis Pharmaceuitcals, inc., priority 2009, published 2012)
